Test results from patent publication US7915245B2, “Methods and compositions of trail-death receptor agonists/activators” (The Board of Regents of the University of Texas System, priority 2007, dated 2011).

What was measured:
[1] = tested on: breast cancer MDA-MB-231 cell line; test: XTT cell viability with signaling inhibitor pretreatment, MDA-MB-231; type: cell-based, human; conditions: then DRA 72 h; for effect of Akt inhibitor on the inhibitory effect on cell viability: Akt inhibitor 0.5 μM 4 h pretreatment; for effect of PI-3 kinase inhibitor LY294002 on the inhibitory effect on cell viability: LY294002 2.5 μM 4 h pretreatment; for effect of NFκB inhibitor MG132 on the inhibitory effect on cell viability: MG132 2.5 μM 4 h pretreatment
Description: FIG. 39. […] MDA-MB-231 cells were pretreated with NFκB inhibitor MG132 (2.5 μM) for 4 h followed by treatment with various concentrations of DRA11, DRA9, and DRA9S for 72 h. At the end of incubation, cell viability was measured by XTT assay. Data represent the mean±S.D.
FIG. 40. […] MDA-MB-231 cells were pretreated with LY294002 (2.5 μM) for 4 h followed by treatment with various concentrations of DRA11, DRA9, and DRA9S for 72 h. At the end of incubation, cell viability was measured by XTT assay. Data represent the mean±S.D.
FIG. 41. […] MDA-MB-231 cells were pretreated with Akt inhibitor (0.5 μM) for 4 h followed by treatment with various concentrations of DRA11, DRA9, and DRA9S for 72 h. At the end of incubation, cell viability was measured by XTT assay. Data represent the mean±S.D.
(§1) XTT Assay. Cells (1×10^4 cells per well) were seeded in 96-well plates (flat bottom), and treated with death receptor agonists/activators/small molecules in the presence or absence of TNF-related apoptosis inducing ligand (TRAIL). Plates were incubated for various time points at 37° C. and 5% CO2. Before the end of the experiment, 50 μl XTT (sodium 3′[1-(phenylaminocarbonyl)-3,4-tetrazolium]-bis(4-methoxy-6-nitro) benzene sulfonic acid hydrate) labeling mixture (final concentration, 125 μM sodium XTT and 25 μM PMS) per well was added and plates were incubated for a further 4 h at 37° C. and 5% CO2. The spectrophotometric absorbance of the sample was measured using a microtitre plate (ELISA) reader. The wavelength to measure absorbance of the formazan product was 450 nm, and the reference wavelength was 650 nm.

[2] = tested on: human normal mammary epithelial cells (HMECs); test: XTT cell viability, normal mammary epithelial cells; type: cell-based; conditions: 72 h
Description: FIG. 21. DRAs have no effect on cell viability in human normal mammary epithelial cells (HMECs), HMECs were treated with DRA11, DRA9 and DRA9S for 72 h. At the end of incubation period, cell viability was measured by XTT assay. Data represent the mean±S.D. Control refers to group treated with DMSO (0.01%).
FIGS. 60 A, B & C. DRAs has no effect on cell viability of human normal mammary, prostate and lung epithelial cells. Human normal mammary (FIG. 60A), prostate (FIG. 60B) and lung (FIG. 60C) epithelial cells were treated with DRA11 (0-25 μM) for 72 h, and cell viability was measured by XTT assay.
XTT Assay. Cells (1×10^4 cells per well) were seeded in 96-well plates (flat bottom), and treated with death receptor agonists/activators/small molecules in the presence or absence of TNF-related apoptosis inducing ligand (TRAIL). Plates were incubated for various time points at 37° C. and 5% CO2. […] The spectrophotometric absorbance of the sample was measured using a microtitre plate (ELISA) reader. The wavelength to measure absorbance of the formazan product was 450 nm, and the reference wavelength was 650 nm.
HMECs were treated with DRA11, DRA9 and DRA9S for 72 h. At the end of incubation period, cell viability was measured by XTT assay. […]

[3] = tested on: mesothelioma M33K cell line; test: XTT cell viability, mesothelioma M33K; type: cell-based; conditions: z-VAD-fmk 25 μM 2 h pretreatment, then DRA 72 h
Description: FIG. 53. […] M33K cells were pretreated with either control peptide (10 μM) or pan caspase inhibitor (z-VAD-fink, 25 μM) for 2 h, followed by treatment with various doses of DRA11, DRA9 and DRA9S for 72 h. At the end of incubation, cell viability was measured by XTT assay. Data represent the mean±S.D.
as §1

[4] = tested on: mesothelioma M9K cell line; test: XTT cell viability, mesothelioma M9K; type: cell-based; conditions: then DRA 72 h; for effect of NFκB inhibitor MG132 on the inhibitory effect on cell viability: MG132 2.5 μM 4 h; for effect of pan caspase inhibitor (z-VAD-fmk) on the inhibitory effect on cell viability: z-VAD-fmk 25 μM 2 h pretreatment
Description: FIG. 43. […] Mesothelioma M9K cells were treated with NFκB inhibitor MG132 (2.5 μM) for 4 h followed by treatment with various concentrations of DRA11, DRA9, and DRA9S for 72 h. At the end of incubation, cell viability was measured by XTT assay. Data represent the mean±S.D.
FIG. 52. […] M9K cells were pretreated with either control peptide (10 μM) or pan caspase inhibitor (z-VAD-fmk, 25 μM) for 2 h, followed by treatment with various doses of DRA11, DRA9 and DRA9S for 72 h. At the end of incubation, cell viability was measured by XTT assay. Data represent the mean±S.D.
as §1

[5] = tested on: mesothelioma MS1 cell line; test: XTT cell viability, mesothelioma MS1; type: cell-based; conditions: then DRA 72 h; for effect of NFκB inhibitor MG132 on the inhibitory effect on cell viability: MG132 2.5 μM 4 h
Description: FIG. 44. […] Mesothelioma MS1 cells were treated with NFκB inhibitor MG132 (2.5 μM) for 4 h followed by treatment with various concentrations of DRA11, DRA9, and DRA9S for 72 h. At the end of incubation, cell viability was measured by XTT assay. Data represent the mean±S.D.
FIG. 54. […] MS1 cells were pretreated with either control peptide (10 μM) or pan caspase inhibitor (z-VAD-fmk, 25 μM) for 2 h, followed by treatment with various doses of DRA11, DRA9 and DRA9S for 72 h. At the end of incubation, cell viability was measured by XTT assay. Data represent the mean±S.D.
as §1

[6] = tested on: breast cancer MDA-MB-468 cells xenografted; test: MDA-MB-468 xenograft tumor growth; type: in vivo, Balb c nude mice; conditions: 40 mg/kg iv, 5 days per week
Description: FIG. 30. […] MDA-MB-468 cells (2×10^6 cells, in a final volume of 0.1 ml PBS) were injected subcutaneously in the right flank of Balb c nude mice. After tumor formation (about 100 mm^3), nude mice were treated (iv) with vehicle control (0.1 ml normal saline), and DRA9S (40 mg/kg, 0.1 ml volume) everyday 5 days per week throughout the duration of the experiment. Tumor volume was calculated using the equation: (volume=length×width×depth×0.5236 mm^3). Data represent mean±S.E.
MDA-MB-468 cells (2×10^6 cells, in a final volume of 0.1 ml PBS) were injected subcutaneously in the right flank of Balb c nude mice. After tumor formation (about 100 mm^3), nude mice were treated (iv) with vehicle control (0.1 ml normal saline), and DRA9S (40 mg/kg, 0.1 ml volume) everyday 5 days per week throughout the duration of the experiment. Tumor volume was calculated using the equation: (volume=length×width×depth×0.5236 mm^3). See, for example, FIG. 30. Data represent mean ±S.E.

SMILES	effect of Akt inhibitor on the inhibitory effect on cell viability [1]	effect of PI-3 kinase inhibitor LY294002 on the inhibitory effect on cell viability [1]	effect of NFκB inhibitor MG132 on the inhibitory effect on cell viability [1]	effect on cell viability in HMECs [2]	effect of pan caspase inhibitor (z-VAD-fmk) on the inhibitory effect on cell viability [3]	effect of NFκB inhibitor MG132 on the inhibitory effect on cell viability [4]	effect of pan caspase inhibitor (z-VAD-fmk) on the inhibitory effect on cell viability [4]	effect of NFκB inhibitor MG132 on the inhibitory effect on cell viability [5]	effect of pan caspase inhibitor (z-VAD-fmk) on the inhibitory effect on cell viability ([5]; z-VAD-fmk 25 μM 2 h pretreatment)	growth of xenografted MDA-MB-468 tumors (tumor volume) [6]
CCOc1cc(Br)c(Br)c(/C=N/c2cccc(C(=O)O)c2)c1O [DRA9]	enhances the inhibitory effects	enhances the inhibitory effects	enhances the inhibitory effects	no effect	blocks the inhibitory effects	enhances the inhibitory effects	blocks the inhibitory effects	enhances the inhibitory effects	blocks the inhibitory effects	–
CCOc1cc(Br)c(Br)c(/C=N/c2cccc(C(=O)O)c2C)c1O [DRA9S]	enhances the inhibitory effects	enhances the inhibitory effects	enhances the inhibitory effects	no effect	–	enhances the inhibitory effects	blocks the inhibitory effects	enhances the inhibitory effects	–	inhibits growth
